A word on the pIC50: it is −log10 of the IC50, conventionally taken in molar units. Read a low pIC50 as a high IC50.

The text below walks through data of patent publication US20250129078A1, “ERBB2 INHIBITORS” (Cogent Biosciences, Inc., priority 2023, published 2025).

One experiment concerns the target EGFR WT (Homo sapiens (Human), UniProt P00533). In words: ErbB enzyme assay (CisBio HTRF-KinEASE-TK), EGFR WT. The following applies: ATP at Km (25 μM), 1 h incubation. The format is biochemical. The method, boiled down: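 Potency comes from a homogeneous time-resolved fluorescence kinase format measuring tyrosine substrate phosphorylation. Reactions and detection steps each run 1 h at ambient temperature. IC50 values are interpolated from 4-parameter logistic fits of percent-of-control data.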
(Time-resolved FRET reads energy transfer from a long-lived donor to a nearby acceptor.)

For another experiment, the target named is ErbB2 V777L (Homo sapiens (Human), UniProt P04626, V777L). In words: ErbB enzyme assay (CisBio HTRF-KinEASE-TK), ErbB2 V777L. The experiment is classed as biochemical. The method, boiled down:
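HTRF KinEASE-TK tyrosine-kinase read-out of substrate phosphorylation after a final 1 h at ambient temperature, from the 655/620 nm emission ratio.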

pIC50: −log10 of the molar value. Counter-ions that a name gives are not always drawn.

ErbB2 V777L, sequence (P04626 23-1255 V777L): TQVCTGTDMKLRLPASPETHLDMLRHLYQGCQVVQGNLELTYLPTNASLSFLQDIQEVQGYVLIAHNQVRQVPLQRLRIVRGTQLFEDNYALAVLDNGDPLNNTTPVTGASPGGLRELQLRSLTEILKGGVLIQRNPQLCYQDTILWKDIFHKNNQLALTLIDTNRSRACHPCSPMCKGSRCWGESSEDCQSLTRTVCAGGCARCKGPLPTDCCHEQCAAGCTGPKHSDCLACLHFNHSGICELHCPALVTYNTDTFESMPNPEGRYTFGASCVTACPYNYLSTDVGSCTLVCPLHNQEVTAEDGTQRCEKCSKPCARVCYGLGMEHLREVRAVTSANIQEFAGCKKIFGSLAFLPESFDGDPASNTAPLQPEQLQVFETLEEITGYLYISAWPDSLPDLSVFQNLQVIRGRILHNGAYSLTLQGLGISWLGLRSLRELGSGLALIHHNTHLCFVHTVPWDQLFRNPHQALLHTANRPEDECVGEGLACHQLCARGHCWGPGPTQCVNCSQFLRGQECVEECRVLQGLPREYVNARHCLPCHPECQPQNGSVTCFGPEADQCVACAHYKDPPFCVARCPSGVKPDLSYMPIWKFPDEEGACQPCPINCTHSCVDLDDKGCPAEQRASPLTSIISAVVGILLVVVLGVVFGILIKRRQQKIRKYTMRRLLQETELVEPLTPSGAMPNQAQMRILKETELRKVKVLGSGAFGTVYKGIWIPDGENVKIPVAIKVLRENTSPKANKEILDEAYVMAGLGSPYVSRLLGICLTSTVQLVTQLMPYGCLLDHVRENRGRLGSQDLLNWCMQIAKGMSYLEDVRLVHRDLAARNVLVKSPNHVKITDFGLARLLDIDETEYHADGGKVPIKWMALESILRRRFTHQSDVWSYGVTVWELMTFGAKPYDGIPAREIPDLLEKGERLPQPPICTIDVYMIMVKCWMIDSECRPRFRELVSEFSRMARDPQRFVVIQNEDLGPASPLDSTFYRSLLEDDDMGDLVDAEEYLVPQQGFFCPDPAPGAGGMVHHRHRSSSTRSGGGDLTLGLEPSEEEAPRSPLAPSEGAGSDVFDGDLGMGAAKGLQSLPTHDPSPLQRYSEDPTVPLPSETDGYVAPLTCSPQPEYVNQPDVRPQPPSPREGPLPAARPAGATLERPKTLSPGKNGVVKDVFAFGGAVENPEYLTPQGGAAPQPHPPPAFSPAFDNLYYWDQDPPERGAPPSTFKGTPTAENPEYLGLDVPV
EGFR WT, sequence (P00533 25-1210): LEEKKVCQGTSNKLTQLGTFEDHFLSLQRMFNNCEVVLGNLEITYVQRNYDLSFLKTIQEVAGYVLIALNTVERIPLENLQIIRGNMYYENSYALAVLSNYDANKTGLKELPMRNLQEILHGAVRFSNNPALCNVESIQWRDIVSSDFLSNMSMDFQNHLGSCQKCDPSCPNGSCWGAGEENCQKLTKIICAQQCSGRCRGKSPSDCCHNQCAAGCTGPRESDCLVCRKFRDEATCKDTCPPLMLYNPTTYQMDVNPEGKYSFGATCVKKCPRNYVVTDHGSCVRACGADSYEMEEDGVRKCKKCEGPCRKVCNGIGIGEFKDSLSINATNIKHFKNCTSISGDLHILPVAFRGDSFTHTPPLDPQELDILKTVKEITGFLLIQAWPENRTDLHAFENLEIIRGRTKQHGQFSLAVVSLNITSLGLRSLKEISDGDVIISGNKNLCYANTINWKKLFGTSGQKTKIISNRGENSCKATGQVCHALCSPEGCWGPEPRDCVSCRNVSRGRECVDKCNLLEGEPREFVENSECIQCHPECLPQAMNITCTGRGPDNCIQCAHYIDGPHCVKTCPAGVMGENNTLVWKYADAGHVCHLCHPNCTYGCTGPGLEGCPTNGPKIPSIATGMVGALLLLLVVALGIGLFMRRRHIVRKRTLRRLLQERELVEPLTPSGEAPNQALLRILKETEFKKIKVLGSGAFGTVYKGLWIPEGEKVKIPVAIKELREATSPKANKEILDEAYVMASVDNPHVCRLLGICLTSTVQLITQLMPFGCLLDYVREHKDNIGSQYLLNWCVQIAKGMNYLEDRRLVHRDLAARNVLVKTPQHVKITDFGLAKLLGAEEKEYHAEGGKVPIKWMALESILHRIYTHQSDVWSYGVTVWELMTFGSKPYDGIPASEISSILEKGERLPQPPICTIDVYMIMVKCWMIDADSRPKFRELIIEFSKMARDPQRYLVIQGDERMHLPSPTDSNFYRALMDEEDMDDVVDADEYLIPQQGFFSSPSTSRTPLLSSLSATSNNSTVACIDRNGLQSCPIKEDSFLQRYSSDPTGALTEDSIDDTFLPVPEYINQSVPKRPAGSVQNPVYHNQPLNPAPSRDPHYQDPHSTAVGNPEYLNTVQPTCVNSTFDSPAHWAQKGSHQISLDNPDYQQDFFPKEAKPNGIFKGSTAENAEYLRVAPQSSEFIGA

As for `C=CC(=O)N1CCCN(c2ncc3ncnc(Nc4ccc(Oc5cc(F)c6c(c5)ncn6C)c(C)c4F)c3n2)CC1` [Compound 112, 1-(4-(8-((2-fluoro-4-((7-fluoro-1-methyl-1H-benzo[d]imidazol-5-yl)oxy)-3-methylphenyl)amino)pyrimido[5,4-d]pyrimidin-2-yl)-1,4-diazepan-1-yl)prop-2-en-1-one], the pIC50 was over 7.30 against EGFR WT and 7.00 to 7.30 against ErbB2 V777L.

As for `C=CC(=O)N1CCCN(c2ccc3ncnc(Nc4ccc(Oc5ccn6ncnc6c5)c(C)c4)c3n2)C[C@@H]1C` [Compound 355, (S)-1-(4-(4-((4-([1,2,4]triazolo[1,5-a]pyridin-7-yloxy)-3-methylphenyl)amino)pyrido[3,2-d]pyrimidin-6-yl)-2-methyl-1,4-diazepan-1-yl)prop-2-en-1-one], the pIC50 against EGFR WT is at most 6.00; on ErbB2 V777L, 6.30 to 7.00.

`C=CC(=O)N1CCN(c2ncc3ncnc(Nc4ccc(Oc5ccc6c(c5)nnn6C)c(C)c4F)c3n2)C2CC21` (centres unmarked) [Compound 48, 1-(5-(8-((2-fluoro-3-methyl-4-((1-methyl-1H-benzo[d][1,2,3]triazol-5-yl)oxy)phenyl)amino)pyrimido[5,4-d]pyrimidin-2-yl)-2,5-diazabicyclo[4.1.0]heptan-2-yl)prop-2-en-1-one]: the negative-log IC50 (pIC50) on EGFR WT and against ErbB2 V777L was over 7.30 in each case.

As for `C=CC(=O)N1C2CCC1CC(c1ccc3ncnc(Nc4ccc(Oc5ccc6c(c5)nnn6C)c(C)c4)c3n1)C2` (centres unmarked) [Compound 397, 1-(3-(4-((3-methyl-4-((1-methyl-1H-benzo[d][1,2,3]triazol-5-yl)oxy)phenyl)amino)pyrido[3,2-d]pyrimidin-6-y1)-8-azabicyclo[3.2.1]octan-8-yl)prop-2-en-1-one trifluoroacetate], the figures for the pIC50 at EGFR WT and at ErbB2 V777L were 6.00 to 6.30 and 6.30 to 7.00, respectively.

Turning to `C=CC(=O)N1CCN(c2ncc3ncnc(Nc4ccc(Oc5cc6nnn(C)c6c(C)c5F)c(C)c4F)c3n2)C[C@H]1C` [Compound 180, (R)-1-(4-(8-((2-fluoro-4-((6-fluoro-1,7-dimethyl-1H-benzo[d][1,2,3]triazol-5-yl)oxy)-3-methylphenyl)amino)pyrimido[5,4-d]pyrimidin-2-y1)-2-methylpiperazin-1-yl)prop-2-en-1-one], the negative logarithm of the IC50 (pIC50) against EGFR WT and against ErbB2 V777L was 7.00 to 7.30 in each case.

Turning to `C=CC(=O)NC1(C(F)(F)F)CCN(c2ccc3ncnc(Nc4ccc(Oc5ccc6c(c5)nnn6C)c(C)c4F)c3n2)CC1` [Compound 345, N-(1-(4-((2-fluoro-3-methyl-4-((1-methyl-1H-benzo[d][1,2,3]triazol-5-yl)oxy)phenyl)amino)pyrido[3,2-d]pyrimidin-6-yl)-4-(trifluoromethyl)piperidin-4-yl)acrylamide], the pIC50 against EGFR WT and against ErbB2 V777L was 6.30 to 7.00 throughout.

As to `C=CC(=O)N[C@H]1CN(c2ccc3ncnc(Nc4ccc(Oc5ccc6c(c5)nnn6C)c(C)c4F)c3n2)CC[C@@H]1F` [Compound 296, N-((3S,4S)-4-fluoro-1-(4-((2-fluoro-3-methyl-4-((1-methyl-1H-benzo[d][1,2,3]triazol-5-yl)oxy)phenyl)amino)pyrido[3,2-d]pyrimidin-6-yl)piperidin-3-yl)acrylamide], the pIC50 at EGFR WT and against ErbB2 V777L was 6.30 to 7.00 in each case.

For the compound `C=CC(=O)N1CCN(c2ccc3ncnc(Nc4ccc(Oc5ccc6c(c5)ncn6C(F)F)c(C)c4F)c3n2)CC1(C)C` [Compound 321, 1-(4-(4-((4-((1-(difluoromethyl)-1H-benzo[d]imidazol-5-yl)oxy)-2-fluoro-3-methylphenyl)amino)pyrido[3,2-d]pyrimidin-6-y1)-2,2-dimethylpiperazin-1-yl)prop-2-en-1-one], the values for the negative logarithm of the IC50 (pIC50) against EGFR WT and on ErbB2 V777L were 6.00 to 6.30 and 6.30 to 7.00, respectively.

With `C=C(F)C(=O)N1CCN(c2ccc3ncnc(Nc4ccc(Oc5ccc6c(c5)nnn6C)c(C)c4)c3n2)C[C@H]1COC` [Compound 362, (S)-2-fluoro-1-(2-(methoxymethyl)-4-(4-((3-methyl-4-((1-methyl-1H-benzo[d][1,2,3]triazol-5-yl)oxy)phenyl)amino)pyrido[3,2-d]pyrimidin-6-yl)piperazin-1-yl)prop-2-en-1-one], the negative logarithm of the IC50 (pIC50) at EGFR WT was at most 6.00; against ErbB2 V777L it was 6.00 to 6.30.

With `C=CC(=O)NC1CCC(c2ccc3ncnc(Nc4ccc(Oc5ccc6c(c5)nnn6C)c(C)c4)c3n2)CC1` (centres unmarked) [Compound 400, N-(4-(4-((3-methyl-4-((1-methyl-1H-benzo[d][1,2,3]triazol-5-yl)oxy)phenyl)amino)pyrido[3,2-d]pyrimidin-6-yl)cyclohexyl)acrylamide], the results for the pIC50 at EGFR WT and on ErbB2 V777L were 7.00 to 7.30 and 6.30 to 7.00, respectively.

On to `C=CC(=O)N1CCN(c2ncc3ncnc(Nc4ccc(Oc5ccc6c(c5)nnn6C)c(C)c4F)c3n2)CC1(C)C` [Compound 32, 1-(4-(8-((2-fluoro-3-methyl-4-((1-methyl-1H-benzo[d][1,2,3]triazol-5-yl)oxy)phenyl)amino)pyrimido [5,4-d]pyrimidin-2-yl)-2,2-dimethylpiperazin-1-yl)prop-2-en-1-one], for which the pIC50 against EGFR WT and at ErbB2 V777L was 6.30 to 7.00 in each case.

As for `C=CC(=O)N1CCN(c2ccc3ncnc(Nc4cc(C)c(Oc5ccc6c(c5)nnn6C)cc4OC(F)(F)F)c3n2)CC1` [Compound 312, 1-(4-(4-((5-methyl-4-((1-methyl-1H-benzo[d][1,2,3]triazol-5-yl)oxy)-2-(trifluoromethoxy)phenyl)amino)py-rido[3,2-d]pyrimidin-6-yl)piperazin-1-yl)prop-2-en-1-one], the pIC50 against EGFR WT and at ErbB2 V777L was 6.30 to 7.00 each time.

Consider `C=CC(=O)N1CCN(c2ncc3ncnc(Nc4ccc(Oc5cc6ncn(C)c6nc5C)c(C)c4)c3n2)CC1` [Compound 135, 1-(4-(8-((4-((3,5-dimethyl-3H-imidazo[4,5-b]pyridin-6-yl)oxy)-3-methylphenyl)amino)pyrimido[5,4-d]pyrimidin-2-yl)piperazin-1-yl)prop-2-en-1-one], for which the negative-log IC50 (pIC50) on EGFR WT is 6.30 to 7.00; on ErbB2 V777L, 7.00 to 7.30.

Consider `C=CC(=O)N1CCN(c2ncc3ncnc(Nc4ccc(Oc5cc6nnn(C)c6c(F)c5C)c(C)c4)c3n2)CC1` [Compound 137, 1-(4-(8-((4-((7-fluoro-1,6-dimethyl-1H-benzo[d][1,2,3]triazol-5-yl)oxy)-3-methylphenyl)amino)pyrimido[5,4-d]pyrimidin-2-yl)piperazin-1-yl)prop-2-en-1-one], for which the negative logarithm of the IC50 (pIC50) against EGFR WT and against ErbB2 V777L was 6.30 to 7.00 in each case.

For the compound `Cc1c(Oc2ccc3c(c2)nnn3C)ccc(Nc2ncnc3ccc(N4CCN(C(=O)/C=C/CF)[C@H](C)C4)nc23)c1F` [Compound 360, (R,E)-4-fluoro-1-(4-(4-((2-fluoro-3-methyl-4-((1-methyl-1H-benzo[d][1,2,3]triazol-5-yl)oxy)phenyl)amino)pyrido[3,2-d]pyrimidin-6-yl)-2-methylpiperazin-1-yl)but-2-en-1-one], the values for the pIC50 at EGFR WT and on ErbB2 V777L were 6.30 to 7.00 and 7.00 to 7.30, respectively.

With `C=CC(=O)N1CCN(c2ncc3ncnc(Nc4ccc(Oc5ccc6c(c5)nnn6C)c(C)c4F)c3c2F)CC1` [Compound 103, 1-(4-(5-fluoro-4-((2-fluoro-3-methyl-4-((1-methyl-1H-benzo[d][1,2,3]triazol-5-yl)oxy)phenyl)amino)pyrido[3,4-d]pyrimidin-6-yl)piperazin-1-yl)prop-2-en-1-one], the pIC50 against EGFR WT and at ErbB2 V777L was 6.30 to 7.00 throughout.

Turning to `Cc1cc(Nc2ncnc3cnc(N4CCN(C(=O)/C=C/CN5CCCC5)CC4)nc23)ccc1Oc1ccc2c(c1)nnn2C` [Compound 52, (E)-1-(4-(8-((3-methyl-4-((1-methyl-1H-benzo[d][1,2,3]triazol-5-yl)oxy)phenyl)amino)pyrimido [5,4-d]pyrimidin-2-yl)piperazin-1-y169yrrolidineolidin-1-yl)but-2-en-1-one], the pIC50 against EGFR WT was over 7.30; on ErbB2 V777L, 7.00 to 7.30.

As to `C=CC(=O)N1C[C@H]2CN(c3ncc4ncnc(Nc5ccc(Oc6ccc7c(c6)nnn7C)c(C)c5)c4n3)C[C@H]21` [Compound 243, cis-1-((1r,5s)-3-(8-((3-methyl-4-((1-methyl-1H-benzo[d][1,2,3]triazol-5-yl)oxy)phenyl)amino)pyrimido[5,4-d]pyrimidin-2-yl)-3,6-diazabicyclo[3.2.0]heptan-6-yl)prop-2-en-1-one], the negative-log IC50 (pIC50) on EGFR WT and on ErbB2 V777L was 6.30 to 7.00 each time.

Consider `C=CC(=O)N(C)[C@H]1C[C@@H](Oc2ncc3ncnc(Nc4ccc(Oc5cc(F)c6c(c5)ncn6C)c(C)c4)c3n2)C1` [Compound 387, N-((1s,3s)-3-((8-((4-((7-fluoro-1-methyl-1H-benzo[d]imidazol-5-yl)oxy)-3-methylphenyl)amino)pyrimido[5,4-d]pyrimidin-2-yl)oxy)cyclobutyl)-N-methylacrylamide], for which the negative logarithm of the IC50 (pIC50) against EGFR WT is 6.30 to 7.00; at ErbB2 V777L, 7.00 to 7.30.

Regarding `C=C(C)C(=O)N1CCN(c2ncc3ncnc(Nc4ccc(Oc5ccc6c(c5)nnn6C)c(C)c4)c3n2)CC1` [Compound 35, 2-methyl-1-(4-(8-((3-methyl-4-((1-methyl-1H-benzo[d][1,2,3]triazol-5-yl)oxy)phenyl)amino)pyrimido [5,4-d]pyrimidin-2-y1)piperazin-1-yl)prop-2-en-1-one], the values for the pIC50 against EGFR WT and at ErbB2 V777L were at most 6.00 and 6.00 to 6.30, respectively.

In the case of `C=CC(=O)N1CCC(Oc2ncc3ncnc(Nc4ccc(Oc5ccn6ncnc6c5)c(C)c4)c3n2)C1` (centres unmarked) [Compound 377, 1-(3-((8-((4-([1,2,4]triazolo[1,5-a]pyridin-7-yloxy)-3-methylphenyl)amino)pyrimido[5,4-d]pyrimidin-2-yl)oxy)pyrrolidin-1-yl)prop-2-en-1-one], the pIC50 against EGFR WT and against ErbB2 V777L was 6.30 to 7.00 throughout.

For the compound `C=CC(=O)N1CCC2(CCN(c3ccc4ncnc(Nc5ccc(Oc6ccc7c(c6)nnn7C)c(C)c5)c4n3)C2)C1` (centres unmarked) [Compound 311, 1-(7-(4-((3-methyl-4-((1-methyl-1H-benzo[d][1,2,3]triazol-5-yl)oxy)phenyl)amino)pyrido[3,2-d]pyrimidin-6-yl)-2,7-diazaspiro[4.4]nonan-2-yl)prop-2-en-1-one], the pIC50 is at most 6.00 at EGFR WT and 6.00 to 6.30 against ErbB2 V777L.
